Laboratory results reported in patent publication US20250177329A1, “GPR120 AGONISTS FOR THE TREATMENT OF INFLAMMATORY BOWEL DISEASE” (Dompe' Farmaceutici SPA, priority 2022, published 2025).

Columns and labels:
[1] = biological target: T1, GPR40 (Mus musculus, UniProt Q76JU9); assay: Co-immunoprecipitation of β-arrestin 2 with GPR40 in colon lysates of DSS mice; type: in vivo; settings: pooled colon lysates, day 39; compared to DSS or DSS+vehicle
T1 construct: Colon lysates (˜900 μg proteins) from 6 mice of each experimental group were pooled; from tissue; host or cells: mouse colon (DSS colitis model)
Procedure: (§1) The efficiency of DFL in activating the GPR120 and/or GPR40 receptors was tested.
(§2) Agonist-induced GPR120 can engage multiple signalling pathways to regulate distinct physiological outcomes. After ligand binding, B-arrestins, such as B-arrestin 2 can associate with the cytoplasmic domains of GPR120 and couple the receptor to specific downstream signaling pathways (FIG. 9). For this reason, we verified the agonist efficiency in activating GPR120 and GPR40 by immunoprecipitation. Colon lysates (˜900 μg proteins) from 6 mice of each experimental group were pooled, precleared with protein A/G plus-agarose (Santa Cruz) and then incubated with the antibody used for immunoprecipitation (anti-GPR120 or anti-GPR40, Abcam) at 4° C. for 16 h, followed by incubation with protein A/G plus-agarose for 5 h. The agarose beads were then collected by centrifugation, washed four times with lysis buffer, and heated to 95° C. for 5 min after adding Laemmli buffer. The resulting immunoprecipitates were separated by SDS-PAGE and probed with the anti-β-arrestin 2 antibody (Santa Cruz).
(§3) Upon western blotting, a densitometric analysis of the blots was performed using Image J. FIGS. 10 and 11 show the ratio between co-immunoprecipitated β-arrestin 2 and GPR120 (FIG. 10) or GPR40 levels (FIG. 11) and the results of the blotting.

[2] = biological target: T2, GPR120 (Mus musculus, UniProt Q7TMA4); assay: Co-immunoprecipitation of β-arrestin 2 with GPR120 in colon lysates of DSS mice; type: in vivo
T2 construct: Colon lysates (˜900 μg proteins) from 6 mice of each experimental group were pooled; from tissue; host or cells: mouse colon (DSS colitis model)
T2 sequence (Q7TMA4 1-361): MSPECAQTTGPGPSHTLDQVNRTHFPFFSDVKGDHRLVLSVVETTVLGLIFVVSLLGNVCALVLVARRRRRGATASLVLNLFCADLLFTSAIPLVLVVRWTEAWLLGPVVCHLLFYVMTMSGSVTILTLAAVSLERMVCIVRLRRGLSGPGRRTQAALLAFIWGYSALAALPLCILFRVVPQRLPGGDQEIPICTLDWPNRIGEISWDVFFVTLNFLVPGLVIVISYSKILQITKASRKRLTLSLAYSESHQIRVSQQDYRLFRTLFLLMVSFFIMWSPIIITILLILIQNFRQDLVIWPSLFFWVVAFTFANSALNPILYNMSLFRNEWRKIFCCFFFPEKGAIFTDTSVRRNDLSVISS
Procedure: as §1, §2, §3

[3] = biological target: T3, human GPR120 (Homo sapiens, UniProt Q5NUL3); assay: Activation of GPR120 receptor; type: cell-based
T3 sequence (Q5NUL3 1-361): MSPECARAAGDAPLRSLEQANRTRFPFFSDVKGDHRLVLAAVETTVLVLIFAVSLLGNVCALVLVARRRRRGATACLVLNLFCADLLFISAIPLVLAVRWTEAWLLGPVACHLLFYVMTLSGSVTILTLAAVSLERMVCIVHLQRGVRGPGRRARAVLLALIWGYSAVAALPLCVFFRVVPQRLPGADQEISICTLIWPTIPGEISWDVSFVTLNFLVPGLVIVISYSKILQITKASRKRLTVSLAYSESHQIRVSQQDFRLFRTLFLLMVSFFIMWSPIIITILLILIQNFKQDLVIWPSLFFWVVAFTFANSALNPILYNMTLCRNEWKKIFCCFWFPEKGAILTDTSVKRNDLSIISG

T1 sequence (Q76JU9 whole entry): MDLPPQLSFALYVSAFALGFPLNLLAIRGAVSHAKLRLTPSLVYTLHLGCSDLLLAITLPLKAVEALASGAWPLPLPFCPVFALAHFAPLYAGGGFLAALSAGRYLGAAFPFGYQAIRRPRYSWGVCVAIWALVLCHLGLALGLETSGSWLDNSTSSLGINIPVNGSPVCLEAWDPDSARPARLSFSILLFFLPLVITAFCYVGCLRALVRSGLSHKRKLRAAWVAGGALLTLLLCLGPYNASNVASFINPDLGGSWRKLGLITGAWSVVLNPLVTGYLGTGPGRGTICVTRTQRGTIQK

**Q.** For `Cc1cc(F)cc(C)c1NS(=O)(=O)c1cccc(CCCCCCC(=O)O)c1` [DFL23806, 7-(3-(N-(4-fluoro-2,6-dimethylphenyl)sulfamoyl)phenyl)heptanoic acid], which “GPR40 and β-arrestin 2 association (ratio co-immunoprecipitated β-arrestin 2 / GPR40)” value [1] is on record?
**A.** no increase

**Q.** And the “selectivity GPR120 versus GPR40” value ([2]; from β-arrestin 2 co-immunoprecipitation with GPR120 and GPR40)?
**A.** GPR120 selective agonist

**Q.** And the “association between GPR120 and β-arrestin 2 (ratio co-immunoprecipitated β-arrestin 2 / GPR120)” value ([2]; pooled colon lysates, day 39, DFL 90 mg/kg, compared to control groups or DSS+5-ASA 60 mg/Kg)?
**A.** higher compared to control groups

**Q.** And the AC50 [3]?
**A.** 3.9 µM
